Measured values published in PMC7961214 (Advanced Pharmaceutical Bulletin, 2020).
Where two headings read alike, the source gives them in different places.

Columns and labels:
[1] = 340 mg/kg given orally ref Timothy et al; cited from earlier work
[2] = In vivo pharmacokinetic study, curcumin plasma concentration by UPLC-MS/MS; set-up: species or system female Wistar rats; conditions: rats, single oral dose 100 mg/kg BW, mean ± SE (n = 5)
Description: The pharmacokinetic evaluation was carried out after obtaining approval from the Ethics Committee of the Faculty of Medicine Universitas Indonesia (approval number: 1188/ UN.2 F1/ETIK/2018). A pharmacokinetic study was carried out in female Wistar rats to determine the pharmacokinetic profile of curcumin particles and nanoparticles. Rats weighing 150–200 g were obtained and maintained at the Biomedical Research Center and Basic Health Technology Laboratory, Balitbangkes, Republic of Indonesia, Ministry of Health. The rats were placed in a room with constant temperature and humidity, adequate lighting, pellet food, and water ad libitum.
For each analysis, blood samples were pooled from six rats. […] Blood samples were taken from the rats tail vein using EDTA tubes. Blood samples were centrifuged at 3000 rpm for 15 minutes to obtain plasma, then stored at -80°C until analysis.
The LC-MS/MS system used was UPLC Waters and tandem mass spectrometry with a positive electrospray ionization source. Separation of analyte in the sample was carried using a liquid chromatography system with Acquity UPLC® BEH C18 column and mobile phase gradient in the form of 0.1% and acetonitrile formic acid with a ratio of 72:28 with analyte rate of 0.3 mL/min and injection volume of 3 µL. […] The calibration curve of a standard solution was made with the final level of the analytes at 1, 2.5, 5, 10, 25, and 50 ng/mL.[24]
The pharmacokinetic profiles were represented as mean and standard error (SE) from each group and were estimated through non-compartmental analysis. […] The area under the curve (AUC) from the beginning to the endpoint ( AUC^0→3 ) was calculated using the trapezoidal method. AUC^0→∞ is the amount of the AUC per time interval from 0 to the time of infinity, calculated by AUC^0→3 […]; Cpn is the plasma concentration at the last sampling time. […] The t1/2 was counted using the equation t1/2 = ln 2/Ke, and the CL was calculated by dividing the dose by AUC^0→∞ .[25]

[3] = cited from earlier work
[4] = Particle size and distribution (Delsa Nanoparticle Size Analyzer); format: physicochemical
Source text: The examination of particle size and distribution of particles from nanoparticles was done using the Delsa™ Nanoparticle Size Analyzer (Beckman Coulter, Brea, USA).

[5] = cited from earlier work; remark: listed apart in the source

- Cmax ([2]; female, Wistar, rat): 1.51 ± 0.401 ng/mL
- Tmax ([2]; female, Wistar, rat): 44 min
- AUC(0-t) ([2]; female, Wistar, rat, read-out: AUC0-3): 1.5 ± 0.401 ng·h/mL
- AUC ([2]; female, Wistar, rat, read-out: AUC0-~): 1.71 ± 0.535 ng·h/mL
- k el ([2]; female, Wistar, rat, read-out: Ke (converted)): 0.000327 s⁻¹
- half-life ([2]; female, Wistar, rat, read-out: t1/2 elimination (converted)): 51.5 ± 12.8 min
- Ka ([2]; residual method): 1.958 ± 0.468 h⁻¹
- mean particle size [4]: 16103.4 nm
SMILES: COc1cc(/C=C/C(=O)CC(=O)/C=C/c2ccc(O)c(OC)c2)ccc1O [Curcumin particles, Curcumin]
- Tmax [1]: 30 min
- partition coefficient [3]: 2.3–2.6
- bioavailability [5]: approximately 1%
